Data on 17 compounds can be found in patent US9682976B2, “Protein kinase C inhibitors and uses thereof” (Rigel Pharmaceuticals, Inc., priority 2012, dated 2017).

Structures are written as SMILES. A value given as a limit tells only on which side of the number the result lay.

The term EC50 denotes the concentration needed to bring the measured effect to its halfway point.

The experiment relates to PKC mediated IL-2 production. The experiment can be described thus: IL-2 ELISA, human primary T cell, anti CD3+CD28+. It counts as cell-based. To be noted: Homo sapiens, T-cell, 24 h, human primary T cells stimulated with αCD3 and αCD28, 24 hours. The method in brief: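 Human peripheral blood T cells, pre-expanded with αCD3/αCD28 and IL-2 and then washed free of IL-2, were pre-incubated with compound for 1 h at 37° C. They were then stimulated on plates coated with […] αCD3 and 5 μg/ml αCD28, or with 0.5 ng/ml PMA plus 0.1 uM ionomycin in the counter assay. IL-2 in supernatants was measured by ELISA after 24 h.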
(In general: An ELISA detects its analyte on a solid surface through an enzyme-linked reagent.)
`[2H]C1(Oc2ccc(Nc3ncc(F)c(N[C@H]4CCN5[C@@H](CCC5(C)C)C4)n3)cc2Cl)CC(OCc2ccccc2)C1` (stereo partly drawn) [Compound 311, N2-(4-(3-(benzyloxy)cyclobutoxy-1-d)-3-chlorophenyl)-N4-((7S,8aS)-3,3-dimethyloctahydroindolizin-7-yl)-5-fluoropyrimidine-2,4-diamine]: the concentration for a half-maximal effect (EC50) lay within 1000 to 10000 nM.
Compound `CC1(C)CC[C@H]2C[C@@H](Nc3nc(Nc4ccc(OC5CC(O)C5)c(Cl)c4)ncc3F)CCN21` (stereo partly drawn) [Compound 312, 3-(2-Chloro-4-((4-(((7S,8aS)-3,3-dimethyloctahydroindolizin-7-yl)amino)-5-fluoropyrimidin-2-yl)amino)phenoxy)cyclobutan-1-ol] returned an EC50 of 100 to 500 nM.
Turning to `[2H]C1(Oc2ccc(Nc3ncc(F)c(N[C@H]4CCN5[C@@H](CCC5(C)C)C4)n3)cc2Cl)CC(O)C1` (stereo partly drawn) [Compound 313, 3-(2-Chloro-4-((4-(((7S,8aS)-3,3-dimethyloctahydroindolizin-7-yl)amino)-5-fluoropyrimidin-2-yl)amino)phenoxy)cyclobutan-3-d-1-ol], the EC50 was in the range of 100 to 500 nM.
In turn, `C[C@@H](O)COc1cc(F)c(Nc2ncc(C#N)c(N[C@@H]3C[C@@H]4CCCN4C(C)(C)C3)n2)cc1-n1nnn(C)c1=O` [Compound 314, 4-((7R,8aS)-octahydro-5,5-dimethylindolizin-7-ylamino)-2-(4-((R)-2-hydroxypropoxy)-2-fluoro-5-(4,5-dihydro-4-methyl-5-oxotetrazol-1-yl)phenylamino)pyrimidine-5-carbonitrile] gave an EC50 of 100 to 500 nM.
The same measure for `CN1C(=O)COc2ccc(Nc3ncc(F)c(N[C@@H]4C[C@@H]5CCCN5C(C)(C)C4)n3)cc21` [Compound 315]: 1000 to 10000 nM; for `COCC1(COC)Oc2ccc(Nc3ncc(F)c(N[C@@H]4C[C@@H]5CCCN5C(C)(C)C4)n3)cc2-n2nnnc21` [Compound 316, N^2-(4,5-dihydro-4,4-bis(methoxymethyl)tetrazolo[5,1-c][1,4]benzoxazin-8-yl)-N^4-((7R,8aS)-octahydro-5,5-dimethylindolizin-7-yl)-5-fluoropyrimidin-2,4-diamine]: < 100 nM.
In the case of `CN1C(=O)C(C)(C)Oc2ccc(Nc3ncc(F)c(N[C@@H]4C[C@@H]5CCCN5C(C)(C)C4)n3)cc21` [Compound 318] it was 500 to 1000 nM; in that of `COCCN1C(=O)C(C)(C)Oc2ccc(Nc3ncc(F)c(N[C@@H]4C[C@@H]5CCCN5C(C)(C)C4)n3)cc21` [Compound 319], 1000 to 10000 nM; in that of `COC(=O)c1ccc(Nc2ncc(F)c(N[C@@H]3C[C@@H]4CCCN4C(C)(C)C3)n2)cc1C(F)(F)F` [Compound 320], 100 to 500 nM.
Compound `CC1(C)C[C@H](Nc2nc(Nc3ccc(NCC(O)CCl)c(C(F)(F)F)c3)ncc2F)C[C@@H]2CCCN21` (stereo partly drawn) [Compound 321, 1-(4-(4-((7R,8aS)-octahydro-5,5-dimethylindolizin-7-ylamino)-5-fluoropyrimidin-2-ylamino)-2-(trifluoromethyl)phenylamino)-3-chloropropa-2-ol] yielded an EC50 of 100 to 500 nM.
`Cn1nnn(-c2cc(Nc3ncc(F)c(N[C@@H]4C[C@@H]5CCCN5C(C)(C)C4)n3)c(F)cc2OCC(N)=O)c1=O` [Compound 322, 2-(4-(4-((7R,8aS)-octahydro-5,5-dimethylindolizin-7-ylamino)-5-fluoropyrimidin-2-ylamino)-5-fluoro-2-(4,5-dihydro-4-methyl-5-oxotetrazol-1-yl)phenoxy)acetamide] gave an EC50 of 100 to 500 nM.
The same measure for `CC(C)OC(=O)COc1cc(F)c(Nc2ncc(F)c(N[C@@H]3C[C@@H]4CCCN4C(C)(C)C3)n2)cc1-n1nnn(C)c1=O` [Compound 323, isopropyl 2-(4-(4-((7R,8aS)-octahydro-5,5-dimethylindolizin-7-ylamino)-5-fluoropyrimidin-2-ylamino)-5-fluoro-2-(4,5-dihydro-4-methyl-5-oxotetrazol-1-yl)phenoxy)acetate]: 1000 to 10000 nM; for `CC1(C)C[C@H](Nc2nc(Nc3ccc(N4CC(C(N)=O)C4)c(C(F)(F)F)c3)ncc2F)C[C@@H]2CCCN21` [Compound 324, 1-(4-(4-((7R,8aS)-octahydro-5,5-dimethylindolizin-7-ylamino)-5-fluoropyrimidin-2-ylamino)-2-(trifluoromethyl)phenyl)azetidine-3-carboxamide]: 500 to 1000 nM; for `CC1(C)C[C@H](Nc2nc(Nc3ccc(NCC(CCl)C(N)=O)c(C(F)(F)F)c3)ncc2F)C[C@@H]2CCCN21` (stereo partly drawn) [Compound 325, 1-(4-(4-((7R,8aS)-octahydro-5,5-dimethylindolizin-7-ylamino)-5-fluoropyrimidin-2-ylamino)-24(2-trifluoromethylphenylamino)methyl)-3-chloropropanamide]: 500 to 1000 nM.
Turning to `CC1(C)C[C@H](Nc2nc(Nc3ccc(N4CC(O)C4)c(C(F)(F)F)c3)ncc2F)C[C@@H]2CCCN21` [Compound 326, 1-(4-(4-((7R,8aS)-octahydro-5,5-dimethylindolizin-7-ylamino)-5-fluoropyrimidin-2-ylamino)-2-(trifluoromethyl)phenyl)azetidin-3-ol], the EC50 fell in the range of 100 to 500 nM.
In the case of `CNC(=O)c1ccc(Nc2ncc(F)c(N[C@@H]3C[C@@H]4CCCN4C(C)(C)C3)n2)cc1Cl` [Compound 327, 4-(4-((7R,8aS)-octahydro-5,5-dimethylindolizin-7-ylamino)-5-fluoropyrimidin-2-ylamino)-2-chloro-N-methylbenzamide] it was 500 to 1000 nM; in that of `Cn1nnn(-c2cc(Nc3ncc(F)c(N[C@@H]4C[C@@H]5CCCN5C(C)(C)C4)n3)ccc2N2CC(O)C2)c1=O` [Compound 328, 1-(5-(4-((7R,8aS)-octahydro-5,5-dimethylindolizin-7-ylamino)-5-fluoropyrimidin-2-ylamino)-2-(3-hydroxyazetidin-1-yl)phenyl)-4-methyl-1H-tetrazol-5(4H)-one], 1000 to 10000 nM.
